Values after ≈ are worked out from the molar mass of the structure shown. Read-outs that look alike come from different tables or passages of the source.

Holding throughout (format): cell-based
Assay [1] has as its system Alicyclobacillus Acidoterrestris (NCIMB). In words: MIC using heat-resistant acidophilic bacteria (liquid medium, turbidity). Particulars: spores in AAM liquid medium, 50° C., 10 days; growth inhibited in all five media. On the procedure: (§1) Spores of Alicyclobacillus Acidocaldarius (NCIMB) and Alicyclobacillus Acidoterrestris (NCIMB) were diluted with buffered saline to 1-2 million/100 μl, heated at 80° C. for 10 minutes, and added for 100 μl each per 5 ml of AAM (Alicyclobacillus Acidoterrestris medium) liquid medium. To the test media prepared as above, antibacterial composition (A) obtained in Example 1 was added according to the following steps. Twenty mg/ml, 10 mg/ml, 5 mg/ml and 2.5 mg/ml antibacterial composition (A) in grapefruit flavors were added to respective media (0.1%) (final concentration of antibacterial composition (A): 20 ppm, 10 ppm, 5 ppm and 2.5 ppm). As controls, a medium with 0.1% grapefruit flavor and a blank medium were prepared to confirm that the bacteria grow without a problem. The thus-prepared media were cultured at 50° C. for 10 days, bacteria growth was determined based on the turbidity of the media associated with proliferation of bacteria, thereby checking growth control effects. For each test bacterium and each sample, five media were subjected to the experiment, and a concentration at which bacteria in every media were inhibited was determined as the minimum inhibitory concentration (MIC).
(§2) For comparison, sucrose fatty acid ester was also determined.

For assay [2], the system named is Alicyclobacillus Acidocaldarius (NCIMB). Described as above. To be noted: spores in AAM liquid medium, 50° C., 10 days; growth inhibited in all five media. On the procedure:
as §1, §2

In assay [3] the test system is Malassezia furfur IFO 0656. In words: MIC by Agar Dilution Test, Mf-1. Particulars: read-out: Minimum inhibitory concentration (MIC). On the procedure:
(§3) Minimum inhibitory concentration (MIC) was determined by Agar Dilution Test (ADT).
(§4) Each antibacterial composition obtained in Example 1 was dissolved in ethanol or water (according to solubility of each antibacterial composition) to carry out two-fold serial dilution. A hundred μl of the resultant was added to a 10 ml sterilized agar medium (skin-related bacteria and standard bacteria in Mueller-Hinton Medium (Difco), yeast and filamentous bacteria in Sabroud Medium (Difco) and anaerobic bacteria in Trypticase Soy agar (BBL)), well agitated, transferred to a 9 cmf petri dish and immobilized at room temperature. To this petri dish, a 27-spot microplanter MIT-P from Sakuma Seisakusho, LTD. was used to spot 1×10^5 cfu (colony forming unit) of skin-related bacteria and standard bacteria, and the resultants were cultured at 37° C. for 18 hours. Anaerobic bacteria are cultured at 37° C. for 72 hours under anaerobic conditions (using BBL gas pack anaerobic system). After completion of cultivation, growth of each bacterium was compared with that in a petri dish with alcohol alone (blank). A concentration of a sample without a bacterium growth was determined as the minimum inhibitory concentration (MIC).
(§5) As comparative substances, butylparaben (BPHB) and triclosan were determined as well.

Assay [4] deals with Corynebacterium xerosis JCM 1324. In words: MIC by Agar Dilution Test, Cx-2. Particulars: read-out: Minimum inhibitory concentration (MIC). As for the experimental part: as §3, §4, §5
The test system of assay [5] is Staphyrococcus aureus ATCC 6538. In words: MIC by Agar Dilution Test, Sa-4. To be noted: read-out: Minimum inhibitory concentration (MIC). As for the experimental part:
as §3, §4, §5
(§6) Minimum inhibitory concentration was determined by Agar Dilution Test described in Example 3 to confirm the difference of antibacterial activities at different mixture ratios.

Assay [6] relates to Bacillus subtilis PCI 219 IFO 3134. In words: MIC by Agar Dilution Test, Bs-1. Particulars: read-out: Minimum inhibitory concentration (MIC). On the procedure:
as §3, §4, §5, §6

In assay [7] the test system is Staphyrococcus epidermidis ATCC 12228. In words: MIC by Agar Dilution Test, Se-3. To be noted: read-out: Minimum inhibitory concentration (MIC). On the procedure:
as §3, §4, §5

In assay [8] the test system is Staphyrococcus epidermidis var. h-6. In words: MIC by Agar Dilution Test, Se-2. To be noted: read-out: Minimum inhibitory concentration (MIC). On the procedure:
as §3, §4, §5

In assay [9] the test system is Staphyrococcus epidermidis JCM 2414. In words: MIC by Agar Dilution Test, Se-1. Particulars: read-out: Minimum inhibitory concentration (MIC). As for the experimental part:
as §3, §4, §5

Assay [10] relates to Staphyrococcus aureus 209P IAM 12082. In words: MIC by Agar Dilution Test, Sa-3. Particulars: read-out: Minimum inhibitory concentration (MIC). On the procedure: as §3, §4, §5
For assay [11], the system named is Actinomyces naeslundii JCM 8350. In words: MIC by Agar Dilution Test, Aa-1. To be noted: read-out: Minimum inhibitory concentration (MIC). As for the experimental part:
as §3, §4, §5

The subject of assay [12] is Actinomyces viscosus JCM 8352. In words: MIC by Agar Dilution Test, Av-1. Particulars: read-out: Minimum inhibitory concentration (MIC). On the procedure: as §3, §4, §5
The test system of assay [13] is Bacteroides fragilis GM 7000 JCM 5560. In words: MIC by Agar Dilution Test, Bf-1. Particulars: read-out: Minimum inhibitory concentration (MIC). On the procedure:
as §3, §4, §5, §6

Assay [14] concerns Fusobacterium nucleatum JCM 6328. In words: MIC by Agar Dilution Test, Fn-1. Particulars: read-out: Minimum inhibitory concentration (MIC). As for the experimental part: as §3, §4, §5
In assay [15] the test system is Propionibacterium acnes JCM 6473. In words: MIC by Agar Dilution Test, Pa-2. To be noted: Cutibacterium acnes, read-out: Minimum inhibitory concentration (MIC). On the procedure:
as §3, §4, §5

Assay [16] concerns Porphyromonas gingivalis JCM 8525. In words: MIC by Agar Dilution Test, Pg-1. To be noted: read-out: Minimum inhibitory concentration (MIC). On the procedure:
as §3, §4, §5

In assay [17] the test system is Prevotella intermedia JCM 6322. In words: MIC by Agar Dilution Test, Pt-1. Particulars: read-out: Minimum inhibitory concentration (MIC). As for the experimental part: as §3, §4, §5, §6
Where [18] appears, read: JCM8350, Aa-1, Trypticase Soy agar, 37° C., 72 hours, anaerobic.
Where [19] appears, read: JCM8352, Av-1, Trypticase Soy agar, 37° C., 72 hours, anaerobic.
Where [20] appears, read: Mf-1 (yeast), Sabroud Medium agar.
Where [21] appears, read: JCM1324, Cx-2, Mueller-Hinton agar, 37° C., 18 hours.
The mark [22] stands for this setting: JCM5560, Bf-1, Trypticase Soy agar, 37° C., 72 hours, anaerobic.
The mark [23] stands for this setting: JCM6328, Fn-1, Trypticase Soy agar, 37° C., 72 hours, anaerobic.
Setting [24] is: Sa-4, Mueller-Hinton agar, 37° C., 18 hours.
The mark [25] stands for this setting: IFO3134, Bs-1, Mueller-Hinton agar, 37° C., 18 hours.
Where [26] appears, read: Se-3, Mueller-Hinton agar, 37° C., 18 hours.
[27] abbreviates: Se-2, Mueller-Hinton agar, 37° C., 18 hours.
Setting [28] is: Se-1, Mueller-Hinton agar, 37° C., 18 hours.
Where [29] appears, read: Sa-3, Mueller-Hinton agar, 37° C., 18 hours.
[30] abbreviates: JCM6473, Pa-2, Trypticase Soy agar, 37° C., 72 hours, anaerobic.
The mark [31] stands for this setting: JCM8525, Pg-1, Trypticase Soy agar, 37° C., 72 hours, anaerobic.
[32] abbreviates: JCM6322, Pt-1, Trypticase Soy agar, 37° C., 72 hours, anaerobic.

Regarding sucrose fatty acid ester, the “Minimum inhibitory concentration (MIC)” value in [1] and in assay [2] was 20 ppm throughout.
Regarding `Oc1cc(Cl)ccc1Oc1ccc(Cl)cc1Cl` [Triclosan, triclosan, reference compound], the MIC stood at 1.6 µg/mL (≈ 5.53 µM) in [3]; 3.1 µg/mL (≈ 10.7 µM) in assay [4] (JCM1324, 18 h); 1.6 µg/mL (≈ 5.53 µM) in assay [5] (18 h); 0.78 µg/mL (≈ 2.69 µM) in assay [6] (IFO3134, 18 h); 1.6 µg/mL (≈ 5.53 µM) in [7] (18 h); 1.6 µg/mL (≈ 5.53 µM) in [8] (18 h). Further, the MIC in assay [9] (18 h) and in assay [10] (18 h) was 1.6 µg/mL (≈ 5.53 µM) each time.
Take `CC(C)=CCC/C(C)=C\Cc1c2occc2c(O)c2ccc(=O)oc12` [Antibacterial composition (G), 9-(3′,7′-dimethyl-2′,6′-octadienyl)-4-hydroxy-7H-furo[3,2-γ][1]benzopyran-7-one]: the MIC in assay [11] (setting [18]) stood at 200 µg/mL (≈ 591 µM); in assay [12] (setting [19]), 100 µg/mL (≈ 296 µM); in assay [3] (setting [20]), 50 µg/mL (≈ 148 µM); in assay [4] (setting [21]), 200 µg/mL (≈ 591 µM); in [13] (setting [22]) it was 100 µg/mL (≈ 296 µM); in assay [14] (setting [23]) it was 50 µg/mL (≈ 148 µM). The MIC in assay [5] (setting [24]) turned out to be 200 µg/mL (≈ 591 µM); in [6] (setting [25]), 200 µg/mL (≈ 591 µM); in assay [7] (setting [26]), 200 µg/mL (≈ 591 µM); in [8] (setting [27]), 200 µg/mL (≈ 591 µM); in [9] (setting [28]) it was 200 µg/mL (≈ 591 µM); in [10] (setting [29]), 100 µg/mL (≈ 296 µM). Further, the MIC was 100 µg/mL (≈ 296 µM) in assay [15] (setting [30]), 50 µg/mL (≈ 148 µM) in assay [16] (setting [31]) and 100 µg/mL (≈ 296 µM) in assay [17] (setting [32]).
As for `CCCCOC(=O)c1ccc(O)cc1` [Butylparaben, butylparaben, reference compound], the MIC came out at 100 µg/mL (≈ 515 µM) in assay [11] (JCM8350, 72 h); 100 µg/mL (≈ 515 µM) in assay [12] (JCM8352, 72 h); 100 µg/mL (≈ 515 µM) in assay [3]; 50 µg/mL (≈ 257 µM) in assay [4] (JCM1324, 18 h); 50 µg/mL (≈ 257 µM) in assay [13] (JCM5560, 72 h); 100 µg/mL (≈ 515 µM) in assay [14] (JCM6328, 72 h). For the same molecule, the MIC in assay [5] (18 h) amounted to 200 µg/mL (≈ 1030 µM); in [6] (IFO3134, 18 h), 200 µg/mL (≈ 1030 µM); in assay [7] (18 h) it was 200 µg/mL (≈ 1030 µM); in assay [8] (18 h), 200 µg/mL (≈ 1030 µM); in assay [9] (18 h), 200 µg/mL (≈ 1030 µM); in assay [10] (18 h), 100 µg/mL (≈ 515 µM). Further, the MIC came out at 100 µg/mL (≈ 515 µM) in [15] (JCM6473, 72 h); 50 µg/mL (≈ 257 µM) in assay [16] (JCM8525, 72 h); 100 µg/mL (≈ 515 µM) in assay [17] (JCM6322, 72 h).
As for `COc1cc(O)c2ccc(=O)oc2c1C/C=C(/C)CCC=C(C)C` [Antibacterial composition (F), 8-(3′,7′-dimethyl-2′,6′-octadienyl)-5-hydroxy-7-methoxy-2H-1-benzopyran-2-one], the MIC in [11] (setting [18]) was found to be 25 µg/mL (≈ 76.1 µM); in [12] (setting [19]) it was 25 µg/mL (≈ 76.1 µM); in [3] (setting [20]) it was 25 µg/mL (≈ 76.1 µM); in [4] (setting [21]), 200 µg/mL (≈ 609 µM); in [13] (setting [22]), 100 µg/mL (≈ 304 µM); in assay [14] (setting [23]) it was 25 µg/mL (≈ 76.1 µM). Further, the MIC in assay [5] (setting [24]) was 200 µg/mL (≈ 609 µM); in [6] (setting [25]), 200 µg/mL (≈ 609 µM); in [7] (setting [26]) it was 200 µg/mL (≈ 609 µM); in [8] (setting [27]) it was 200 µg/mL (≈ 609 µM); in [9] (setting [28]), 200 µg/mL (≈ 609 µM); in [10] (setting [29]), 25 µg/mL (≈ 76.1 µM). For the same molecule, the MIC in assay [15] (setting [30]) was 25 µg/mL (≈ 76.1 µM); in [16] (setting [31]) it was 25 µg/mL (≈ 76.1 µM); in assay [17] (setting [32]), 100 µg/mL (≈ 304 µM).
